In patent US5773412A, “Use of peptides for altering αV β3 -mediated binding” (priority 1995, dated 1998):
Entries after “also recorded” stand apart in the source; their conditions may differ. Where a SMILES comes first, the peptide text is derived from it. Bridges are numbered along the chain shown (N, C = ends). [ ]: non-standard residue; d: D form. Tic = O=C(O)[C@@H]1Cc2ccccc2CN1; Pen = CC(C)(S)[C@H](N)C(=O)O; Mpa = O=C(O)CCS

Experiments:
[1] = system: osteoclasts; αv β3 integrin receptor; test: Series of assays of Example II (summary of potency and selectivity, FIG. 2); conditions: in words
αv β3 receptor = biological target: T1, αv β3 receptor (Homo sapiens, UniProt P05106+P06756); test: αvβ3 competitive ELISA; format: binding; conditions: IC50 in αvβ3 ELISA / JY cells versus αvβ5 and α5β1 ELISAs; in words
T1 construct: The αv β3 receptor was purified from octylglucopyranoside-extracted human placenta; from tissue; host or cells: human placenta
Procedure: Peptide binding to purified human αv β5 and αv β3, which are VnR's, and to α5 β1 which is a FnR, was determined using competitive ELISA assays as described below.
Peptide binding to purified αv β3 receptor was determined by using a competitive ELISA, in which αv β3 receptor was immobilized and the binding of solubilized VN, in the presence of various concentrations of peptide analogue, was detected using a monoclonal mouse IgG anti-VN antibody and a labelled anti-mouse IgG conjugate.
96 well microtiter plates were coated overnight at RT with 100 μl/well of αv β3 receptor (0.5 μg/ml in 1X TBS, 4 mM octylglucoside, 1 mM CaCl2). The wells were blocked with 200 μl/well of 1% BSA in 1X TBS, 1 mM CaCl2 for at least 30 min. The plates were washed 2× with 1X TBS, 1 mM CaCl2. 50 μl peptide in 1X TBS, 1 mM CaCl2, 0.05% TWEEN 20 (polyoxyethylenesorbitan monolaurate) was added in 10-fold serial dilutions. 50 μl of Vn in the same buffer then was added to each well.
The plates were incubated for 3 hr at RT, then washed 3× with 1X TBS, 0.05% TWEEN 20 (polyoxyethylenesorbitan monolaurate). 100 μl of 8E6 (Telios) diluted to 1:6000 in 1X TBS, 0.05% TWEEN 20 (polyoxyethylenesorbitan monolaurate) was added to the wells and the plates were incubated for 1 hr at RT. Plates were washed 3× with 1X TBS, 0.05% TWEEN 20 (polyoxyethylenesorbitan monolaurate). Affinity purified goat anti-mouse IgG conjugated to horseradish peroxidase (100μl/well; BioRad; Hercules Calif.) was added to each well and incubated for 1 hr at RT. Plates were washed 3× with 1X TBS, 0.05% TWEEN 20 (polyoxyethylenesorbitan monolaurate). 100 μl/well of substrate mixture (10 mg O-phenylenediamine in 25 ml 0.1M citrate-phosphate buffer, pH 5.0, 6 μl 30% H2 O2) was added to the plates and allowed to develop. The development process was stopped by adding 50 μl to 4N H2 SO4 to each well. The plates were read at 490 nm and the data analyzed by four parameter fit.

osteoclasts = conditions: in vitro; Sato et al., EP 437,367; cited from earlier work
[2] = in vivo; Fisher et al.; cited from earlier work
[3] = Parathyroid hormone-induced hypercalcemia in mice; format: in vivo; conditions: parathyroidectomized Swiss-Webster mice, 4 hr peptide infusion, 0.2 mg PTH/kg i.v.; in words
Source text: Parathyroid hormone (PTH) activates osteoclasts, which are involved in bone resorption. Associated with the increased osteoclast activity is an increase in serum calcium. The PTH-induced hypercalcemia assay measures the level of serum calcium, which is an indication of bone resorption in a subject (Fischer et al., Endocrinology 132:1411-1413 (1993), which is incorporated herein by reference).
Swiss-Webster mice, which had been parathyroidectomized two weeks prior to beginning the assay, were obtained from Taconic Lab Animals and Services (Germantown N.Y.). Femoral vein catheters (PE-50 fused with PE10 polyethylene tubing; Becton Dickinson; Parsippany, N.J.) were installed in the mice, flushed and locked with heparinized saline (1:10), sutured to adjacent muscle and internalized within the inguinal space of the incision before closing the incision with wound clips. […]
The experiment was initiated by feeding the mice a calcium-deficient diet overnight, then injecting the mice the following morning with a bolus of 0.2 mg PTH/kg (hPTH 1-34; Bachem; Torrance Calif.), intravenously. […] Various doses of a peptide or vehicle were infused into an animal for 4 hr, then ionized serum calcium again was measured. […] Serum calcium measurements were expressed as the difference between the value 30 min before the PTH pulse and 4 hr after peptide infusion was started. […]

αv β3 integrin receptor = conditions: Choi et al. 1994; cited from earlier work
[4] = Half-life of peptide in serum; format: in vivo; conditions: in words
Source text: Increased stability of a disulfide bonded peptide of the invention also can be conferred by incorporating a hydrophobic amino acid residue such as phenylalanine at position X1 or X8 or both X1 and X8 in an RGDNTic (SEQ ID NO: 31) or RGDDV (SEQ ID NO: 1) pharmacophore as disclosed herein. The presence of such a residue can stabilize the disulfide bond against enzymatic degradation (see Bauer et al., Life Sciences 31:1133-1140 (1982)). […] In addition, the half-life of a peptide in a subject can be determined, for example, by high performance liquid chromatography (HPLC) of serum samples collected from the subject at various times following administration of the peptide. One skilled in the art would know how to select appropriate elution buffers for HPLC based on the physico-chemical properties of a particular peptide.

Compound: CC(=O)N[C@@H]1C(=O)N[C@@H](Cc2ccccc2)C(=O)N[C@@H](C)C(=O)N[C@@H](CCCNC(=N)N)C(=O)NCC(=O)N[C@@H](CC(=O)O)C(=O)N[C@@H](CC(N)=O)C(=O)N2CCC[C@H]2C(=O)N[C@H](C(N)=O)CSSC1(C)C [peptide 214] (Ac-[Pen]FARGDNPC-NH2; disulfide 1-9)
- potency (active at a relatively low concentration) [1]: particularly potent

Compound: CC(=O)N[C@H]1CSSC(C)(C)[C@@H](C(N)=O)NC(=O)[C@@H]2CCCN2C(=O)[C@H](CC(N)=O)NC(=O)[C@H](CC(=O)O)NC(=O)CNC(=O)[C@H](CCCNC(=N)N)NC1=O [compound 228] (Ac-CRGDNP[Pen]-NH2; disulfide 1-7)
- receptor selectivity for αv β3 compared to αv β5 and α5 β1 (αv β3 receptor): particularly receptor selective

Compound: CC(=O)N[C@H]1CSSC[C@@H](C(N)=O)NC(=O)[C@@H]2Cc3ccccc3CN2C(=O)[C@H](CO)NC(=O)[C@H](CC(=O)O)NC(=O)CNC(=O)[C@H](CCCNC(=N)N)NC1=O [compound 812, Ac-CRGDS(Tic)C--NH2] (Ac-CRGDS[Tic]C-NH2; disulfide 1-7)
- potency (active at a relatively low concentration) [1]: particularly potent
- activity (FIG. 2) ([1]; minimally essential elements): demonstrate activity

Compound: CC(C)[C@@H]1NC(=O)[C@H](CC(=O)O)NC(=O)[C@H](CC(=O)O)NC(=O)CNC(=O)[C@H](CCCNC(=N)N)NC(=O)[C@H](C)NC(=O)[C@H](C)NC(=O)[C@@H](NC(=O)CN)C(C)(C)SSC[C@@H](C(=O)N[C@@H](C)C(N)=O)NC1=O [compound 814] (H-G[Pen]AARGDDVCA-NH2; disulfide 2-10)
- receptor selectivity for αv β3 compared to αv β5 and α5 β1 (αv β3 receptor): receptor selective for αv β3; also recorded: particularly receptor selective

Compound: Echistatin
- inhibition of bone resorption (osteoclasts): inhibits bone resorption in vitro
- inhibition of bone resorption [2]: inhibits bone resorption

Compound: CC(C)[C@@H]1NC(=O)[C@H](CC(=O)O)NC(=O)[C@H](CC(=O)O)NC(=O)CNC(=O)[C@H](CCCNC(=N)N)NC(=O)CCSSC[C@@H](C(N)=O)NC1=O [compound 191] ([Mpa]RGDDVC-NH2; disulfide 1-7)
- PTH-induced rise in serum ionized calcium [3]: decreased the PTH-induced rise in serum ionized calcium in a dose responsive manner

Compound: CC[C@H](C)[C@@H]1NC(=O)[C@@H](NC(=O)CN)C(C)(C)SSC[C@@H](C(=O)N[C@@H](C)C(=O)O)NC(=O)[C@H](CC(C)C)NC(=O)[C@H](CC(=O)O)NC(=O)[C@H](CC(=O)O)NC(=O)CNC(=O)[C@H](CCCNC(=N)N)NC(=O)[C@H](C)NC1=O [compound 448] (H-G[Pen]IARGDDLCA-OH; disulfide 2-10)
- receptor selectivity for αv β3 compared to αv β5 and α5 β1 (αv β3 receptor): particularly receptor selective

Compound: G(Pen)GRGDSPCA
- inhibition of neointimal hyperplasia (αv β3 integrin receptor): can inhibit neointimal hyperplasia

Compound: CC(=O)N[C@@H](Cc1ccccc1)C(=O)N[C@H]1CSSC[C@@H](C(N)=O)NC(=O)[C@H](Cc2ccccc2)NC(=O)[C@H]([C@@H](C)O)NC(=O)[C@H](CC(=O)O)NC(=O)CNC(=O)[C@H](CCCNC(=N)N)NC1=O [peptide 220] (Ac-FCRGDTFC-NH2; disulfide 2-8)
- half-life in serum [4]: relatively long half-life in serum
